Data taken from patent US20060069132A1, “Azolecarboxamide herbicides” (priority 2004, published 2006).

Experiments:
velvetleaf = assay: Test C pre-/postemergence herbicide test; type: in vivo, Abutilon theophrasti
Outline: (§1)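 Greenhouse-grown plants were evaluated visually 12 to 14 days after treatment, with 100 meaning complete control and 0 no effect. Application was preemergence, or postemergence at 2 to 18 cm.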

[1] = system: common (oilseed) sunflower; assay: Test C pre-/postemergence herbicide test; type: in vivo, Helianthus annuus; details: for Plant response rating (0 = no effect, 100 = complete control), Sunflower / Plant response rating, Sunflower: preemergence; for Sunflower plant response rating: Preemergence, scale 0 to 100, 0 no effect, 100 complete control
Outline: as §1

redroot pigweed = assay: Test A pre-/postemergence herbicide test; type: in vivo, Amaranthus retroflexus
Outline: (§2)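 Plants are held in greenhouse about ten days after treatment, then compared with untreated controls and scored 0 (no effect) to 100 (complete control). Preemergence dosing is a directed soil spray on sown sandy loam; postemergence dosing is spray to runoff at 2–10 cm height.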

large crabgrass [2] = assay: Test C pre-/postemergence herbicide test; type: in vivo, Digitaria sanguinalis
Outline: as §1

goosegrass = assay: Test C pre-/postemergence herbicide test; type: in vivo, Eleusine indica
Outline: as §1

large crabgrass [3] = assay: Test A pre-/postemergence herbicide test; type: in vivo, Digitaria sanguinalis
Outline: as §2

pigweed = assay: Test C pre-/postemergence herbicide test; type: in vivo, Amaranthus retroflexus
Outline: as §1

[4] = 250 g ai/ha, scale 0 to 100 (0 no effect, 100 complete control), visual, 12 to 14 days, preemergence
[5] = Postemergence, 500 g ai/ha, scale 0 to 100
[6] = Postemergence, 250 g ai/ha, scale 0 to 100, 0 no effect, 100 complete control
[7] = Preemergence, 500 g ai/ha, scale 0 to 100, 0 no effect, 100 complete control
[8] = postemergence, 125 g ai/ha, scale 0 to 100
[9] = postemergence, 62 g ai/ha, scale 0 to 100
[10] = 250 g ai/ha, scale 0 to 100 (0 no effect, 100 complete control), visual, 12 to 14 days
[11] = Postemergence, 500 g ai/ha, 0 to 100 scale, 0 no effect, 100 complete control
[12] = Postemergence, 2000 g ai/ha, 0 to 100 scale, 0 no effect, 100 complete control
[13] = Preemergence, 500 g ai/ha, visual rating, 0 to 100 scale (0 no effect, 100 complete control)
[14] = Preemergence, 2000 g ai/ha, 0 to 100 scale, 0 no effect, 100 complete control
[15] = 125 g ai/ha, scale 0-100, preemergence
[16] = Postemergence, 125 g ai/ha, scale 0 to 100, 0 no effect, 100 complete control
[17] = Postemergence, 250 g ai/ha, 0 to 100 scale, 0 no effect, 100 complete control
[18] = Postemergence, 1000 g ai/ha, 0 to 100 scale, 0 no effect, 100 complete control
[19] = Preemergence, 1000 g ai/ha, visual rating, 0 to 100 scale (0 no effect, 100 complete control)
[20] = preemergence, 250 g ai/ha, visual injury, 0 to 100 scale (0 no effect, 100 complete control)
[21] = 31 g ai/ha, preemergence, scale 0 to 100
[22] = 125 g ai/ha, scale 0 (no effect) to 100 (complete control), visual, 12 to 14 days, preemergence
[23] = 62 g ai/ha, preemergence, scale 0 to 100
[24] = 250 g ai/ha, scale 0-100, preemergence
[25] = 500 g ai/ha, scale 0 to 100 (0 no effect, 100 complete control), visual, 12 to 14 days, preemergence
[26] = 500 g ai/ha, scale 0 to 100 (0 no effect, 100 complete control), visual, 12 to 14 days

C=Cn1nc(C(C)(C)C)cc1C(=O)Nc1cccc(C(=O)N(CC)CC)c1 [Compound 34]
90: Plant response rating, Velvetleaf (velvetleaf; [4]) | Plant response rating, Pigweed (redroot pigweed; [11]) | Plant response rating, Pigweed (redroot pigweed; [12])
20: Plant response rating, Velvetleaf (velvetleaf; [9]) | Plant response rating, Crabgrass, Large (large crabgrass [2]; [9]) | Plant response rating (0 = no effect, 100 = complete control), Goosegrass (goosegrass; 62 g ai/ha, preemergence)
100: Velvetleaf plant response rating (velvetleaf; [7]) | Pigweed plant response rating (redroot pigweed; [13]) | Pigweed plant response rating (redroot pigweed; [14]) | Plant response rating, Crabgrass, Large (large crabgrass [2]; [15]) | Plant response rating, Crabgrass, Large (large crabgrass [2]; [4]) | Crabgrass, Large plant response rating (large crabgrass [2]; [7]) | Plant response rating, Goosegrass (goosegrass; [4]) | Goosegrass plant response rating (goosegrass; [7]) | Crabgrass, Large plant response rating (large crabgrass [3]; [14]) | Plant response rating (0 = no effect, 100 = complete control), Pigweed (pigweed; 62 g ai/ha, preemergence) | Plant response rating, Pigweed (pigweed; [4]) | Pigweed plant response rating (pigweed; [5]) | Plant response rating, Pigweed (pigweed; [6]) | Pigweed plant response rating (pigweed; [7]) | Plant response rating, Pigweed (pigweed; [8]) | Plant response rating, Pigweed (pigweed; [9])
40: Plant response rating, Crabgrass, Large (large crabgrass [2]; [16]) | Goosegrass plant response rating (goosegrass; [5]) | Plant response rating, Goosegrass (goosegrass; [16]) | Plant response rating, Goosegrass (goosegrass; [6])
0: Plant response rating (0 = no effect, 100 = complete control), Velvetleaf (velvetleaf; 62 g ai/ha, preemergence) | Plant response rating (0 = no effect, 100 = complete control), Sunflower ([1]; 62 g ai/ha) | Plant response rating, Sunflower [1, 10] | Sunflower plant response rating ([1]; 500 g ai/ha)
30: Plant response rating, Goosegrass (goosegrass; [9]) | Plant response rating, Crabgrass, Large (large crabgrass [3]; [11])
60: Crabgrass, Large plant response rating (large crabgrass [2]; [5]) | Plant response rating, Crabgrass, Large (large crabgrass [2]; [6]) | Crabgrass, Large plant response rating (large crabgrass [3]; [13])
70: Velvetleaf plant response rating (velvetleaf; [5]) | Plant response rating, Velvetleaf (velvetleaf; [6]) | Plant response rating, Velvetleaf (velvetleaf; [8])
50: Plant response rating, Crabgrass, Large (large crabgrass [3]; [12])
80: Plant response rating (0 = no effect, 100 = complete control), Crabgrass, Large (large crabgrass [2]; 62 g ai/ha, preemergence) | Plant response rating, Goosegrass (goosegrass; [15])

CCNC(=O)c1cccc(NC(=O)c2cc(C(C)(C)C)nn2CC(F)(F)F)c1 [Compound 31]
60: Plant response rating, Velvetleaf (velvetleaf; [8]) | Plant response rating, Crabgrass, Large (large crabgrass [2]; [16]) | Plant response rating, Crabgrass, Large (large crabgrass [2]; [6])
20: Plant response rating (0 = no effect, 100 = complete control), Velvetleaf (velvetleaf; 62 g ai/ha, preemergence) | Plant response rating, Sunflower [1, 10] | Sunflower plant response rating ([1]; 500 g ai/ha) | Crabgrass, Large plant response rating (large crabgrass [3]; [20])
100: Plant response rating, Velvetleaf (velvetleaf; [4]) | Velvetleaf plant response rating (velvetleaf; [7]) | Plant response rating, Crabgrass, Large (large crabgrass [2]; [15]) | Plant response rating, Crabgrass, Large (large crabgrass [2]; [4]) | Crabgrass, Large plant response rating (large crabgrass [2]; [7]) | Plant response rating (0 = no effect, 100 = complete control), Pigweed (pigweed; 62 g ai/ha, preemergence) | Plant response rating, Pigweed (pigweed; [4]) | Pigweed plant response rating (pigweed; [5]) | Plant response rating, Pigweed (pigweed; [6]) | Pigweed plant response rating (pigweed; [7])
70: Velvetleaf plant response rating (velvetleaf; [5]) | Plant response rating, Velvetleaf (velvetleaf; [6]) | Crabgrass, Large plant response rating (large crabgrass [2]; [5])
55: Pigweed plant response rating (redroot pigweed; [17])
45: Pigweed plant response rating (redroot pigweed; [20]) | Crabgrass, Large plant response rating (large crabgrass [3]; [19])
50: Plant response rating, Velvetleaf (velvetleaf; [9]) | Plant response rating, Crabgrass, Large (large crabgrass [2]; [9])
90: Plant response rating (0 = no effect, 100 = complete control), Crabgrass, Large (large crabgrass [2]; 62 g ai/ha, preemergence) | Goosegrass plant response rating (goosegrass; [7]) | Plant response rating, Pigweed (pigweed; [8]) | Plant response rating, Pigweed (pigweed; [9])
80: Plant response rating, Pigweed (redroot pigweed; [18]) | Pigweed plant response rating (redroot pigweed; [19])
0: Plant response rating (0 = no effect, 100 = complete control), Sunflower ([1]; 62 g ai/ha)
40: Plant response rating, Goosegrass (goosegrass; [4]) | Goosegrass plant response rating (goosegrass; [5]) | Plant response rating, Goosegrass (goosegrass; [6]) | Plant response rating, Crabgrass, Large (large crabgrass [3]; [18])
30: Plant response rating (0 = no effect, 100 = complete control), Goosegrass (goosegrass; 62 g ai/ha, preemergence) | Plant response rating, Goosegrass (goosegrass; [15]) | Plant response rating, Goosegrass (goosegrass; [16]) | Plant response rating, Goosegrass (goosegrass; [9]) | Crabgrass, Large plant response rating (large crabgrass [3]; [17])

CCNC(=O)c1cccc(NC(=O)c2cc(C(C)(C)C)nn2CCF)c1 [Compound 35]
90: Plant response rating (0 = no effect, 100 = complete control), Pigweed (pigweed; 62 g ai/ha, preemergence)
0: Plant response rating, Velvetleaf (velvetleaf; [21]) | Plant response rating, Crabgrass, Large (large crabgrass [2]; [21]) | Plant response rating, Pigweed (pigweed; [21])
10: Plant response rating, Sunflower ([1]; 31 g ai/ha, scale 0 to 100) | Plant response rating (0 = no effect, 100 = complete control), Sunflower ([1]; 62 g ai/ha) | Plant response rating, Sunflower ([1]; 125 g ai/ha, scale 0 (no effect) to 100 (complete control), visual, 12 to 14 days) | Plant response rating (0 = no effect, 100 = complete control), Crabgrass, Large (large crabgrass [2]; 62 g ai/ha, preemergence)
55: Plant response rating, Crabgrass, Large (large crabgrass [3]; [11])
20: Plant response rating, Goosegrass (goosegrass; [21])
60: Plant response rating, Crabgrass, Large (large crabgrass [3]; [12])
70: Plant response rating, Velvetleaf (velvetleaf; [9]) | Plant response rating, Goosegrass (goosegrass; [22])
40: Plant response rating, Crabgrass, Large (large crabgrass [2]; [16]) | Plant response rating, Crabgrass, Large (large crabgrass [2]; [9]) | Plant response rating, Goosegrass (goosegrass; [9])
80: Plant response rating, Velvetleaf (velvetleaf; [8])
100: Plant response rating (0 = no effect, 100 = complete control), Velvetleaf (velvetleaf; 62 g ai/ha, preemergence) | Plant response rating, Velvetleaf (velvetleaf; [22]) | Pigweed plant response rating (redroot pigweed; [13]) | Pigweed plant response rating (redroot pigweed; [14]) | Crabgrass, Large plant response rating (large crabgrass [3]; [14]) | Plant response rating, Pigweed (pigweed; [22]) | Plant response rating, Pigweed (pigweed; [8]) | Plant response rating, Pigweed (pigweed; [9])
50: Plant response rating, Crabgrass, Large (large crabgrass [2]; [22]) | Plant response rating, Goosegrass (goosegrass; [16])
85: Plant response rating, Pigweed (redroot pigweed; [11])
30: Plant response rating (0 = no effect, 100 = complete control), Goosegrass (goosegrass; 62 g ai/ha, preemergence)
95: Plant response rating, Pigweed (redroot pigweed; [12]) | Crabgrass, Large plant response rating (large crabgrass [3]; [13])

C=CCNC(=O)c1cccc(NC(=O)c2nn(C(C)C)nc2CC)c1 [Compound 382]
0: Plant response rating, Sunflower ([1]; 62 g ai/ha, scale 0 to 100) | Plant response rating, Sunflower ([1]; 250 g ai/ha, scale 0-100)
20: Plant response rating, Sunflower [1, 26]
95: Plant response rating, Crabgrass, Large (large crabgrass [2]; [23]) | Plant response rating, Goosegrass (goosegrass; [24]) | Plant response rating, Pigweed (pigweed; [23]) | Plant response rating (0 = no effect, 100 = complete control), Pigweed (pigweed; 125 g ai/ha, preemergence)
90: Plant response rating (0 = no effect, 100 = complete control), Goosegrass (goosegrass; 125 g ai/ha, preemergence)
100: Plant response rating, Velvetleaf (velvetleaf; [23]) | Plant response rating (0 = no effect, 100 = complete control), Velvetleaf (velvetleaf; 125 g ai/ha, preemergence) | Plant response rating, Velvetleaf (velvetleaf; [24]) | Plant response rating, Velvetleaf (velvetleaf; [25]) | Plant response rating (0 = no effect, 100 = complete control), Crabgrass, Large (large crabgrass [2]; 125 g ai/ha, preemergence) | Plant response rating, Crabgrass, Large (large crabgrass [2]; [24]) | Plant response rating, Crabgrass, Large (large crabgrass [2]; [25]) | Plant response rating, Goosegrass (goosegrass; [25]) | Plant response rating, Pigweed (pigweed; [24]) | Plant response rating, Pigweed (pigweed; [25])
75: Plant response rating, Goosegrass (goosegrass; [23])

CCc1nn(C(C)C)nc1C(=O)Nc1cccc(C(=O)N(C)CC)c1 [Compound 386]
98: Plant response rating, Crabgrass, Large (large crabgrass [2]; [23])
40: Plant response rating (0 = no effect, 100 = complete control), Sunflower ([1]; 125 g ai/ha)
85: Plant response rating, Sunflower ([1]; 250 g ai/ha, scale 0-100) | Plant response rating, Sunflower [1, 26] | Plant response rating, Goosegrass (goosegrass; [23])
95: Plant response rating (0 = no effect, 100 = complete control), Goosegrass (goosegrass; 125 g ai/ha, preemergence) | Plant response rating, Goosegrass (goosegrass; [24]) | Plant response rating, Goosegrass (goosegrass; [25])
100: Plant response rating (0 = no effect, 100 = complete control), Velvetleaf (velvetleaf; 125 g ai/ha, preemergence) | Plant response rating, Velvetleaf (velvetleaf; [24]) | Plant response rating, Velvetleaf (velvetleaf; [25]) | Plant response rating (0 = no effect, 100 = complete control), Crabgrass, Large (large crabgrass [2]; 125 g ai/ha, preemergence) | Plant response rating, Crabgrass, Large (large crabgrass [2]; [24]) | Plant response rating, Crabgrass, Large (large crabgrass [2]; [25]) | Plant response rating, Pigweed (pigweed; [23]) | Plant response rating (0 = no effect, 100 = complete control), Pigweed (pigweed; 125 g ai/ha, preemergence) | Plant response rating, Pigweed (pigweed; [24]) | Plant response rating, Pigweed (pigweed; [25])
70: Plant response rating, Velvetleaf (velvetleaf; [23])
